# “And” between values parts separate entries of the source, which are not always exact repeats. Equal values may be shown once. Marks after values point to notes of the source that are not given here.
# Assays:
# [1] = Longitudinal relaxivity (r1) from T1 measurements at 60 MHz, absence of copper; assay type: physicochemical; conditions: for r1 (no Cu): no copper, 60 MHz, 20 mM HEPES buffer, pH 7, 37° C., 0.2 mM Gd^3+
# Procedure: (§1) The longitudinal relaxivity values for the CG contrast agents in the absence or presence of copper ions were determined using T1 measurements at 60 MHz. Studies were performed at 37° C. in 20 mM HEPES buffered to pH 7, and solutions of the purified CG sensors for relaxivity experiments contained 0.2 mM Gd^3+ as determined by ICP-OES. Spectroscopic data are collected in Table 1.
# Nuclear magnetic relaxation dispersion (NMRD) experiments provide supporting evidence for this proposal (vide infra).
# [2] = Dysprosium-induced 17O NMR shift (DIS) experiments for q; assay type: physicochemical; conditions: for q (estimated number of inner-sphere water molecules): calculated from q = 9 DyCl3
# Procedure: FIG. 8. Plot of [DyCG2] vs. −Δ ppm of the ^17O signal of H2O in the absence and presence of 1 equiv Cu^+. Spectra were acquired at room temperature in 20 mM HEPES buffer, pH 7, at a ^17O Larmor frequency of 67.8 MHz.
# To circumvent these issues, we turned our attention to an alternative method for obtaining q values, namely the application of ^17O NMR spectroscopy to Dy^3+ analogs of the CG sensors (DyCG2-6).^114 Specifically, interactions of water ligands with paramagnetic Dy^3+ ions lead to an upfield shift of the ^17O signals of H2O in a manner proportional to both the concentration of Dy^3+ and q. Moreover, this lanthanide-induced shift is largely insensitive to the non-water ligands coordinated to the paramagnetic metal center.^114 Dysprosium-induced shift (DIS) experiments for CG2 and CG3 were performed in 20 mM HEPES buffered to pH 7; CG4 and CG5 spectra were acquired in 10% acetonitrile in 20 mM HEPES buffered to pH 7 owing to solubility and stability of the Cu^+-bound complexes at higher Dy^3+ concentrations required for the DIS measurements (1-200 mmol/kg H2O). Dy concentrations were calculated using molality (with respect to H2O) since the ^17O shift represents the interaction between Dy^3+ and H2O; addition of CH3CN aids in stabilizing certain complexes but should not affect the DIS. The spectral results were calibrated to a DyCl3 standard (q=9) to determine the number of bound water molecules for the CG sensors with and without added Cu^+. A plot of varying DyCl3 concentrations versus DIS in pH 7 HEPES buffer has a slope of 324 ppm/(mol/kg H2O), which corresponds to a 36 ppm/(mol/kg H2O) shift per bound water molecule.
# The effects of DyCG2 on the chemical shift of ^17O-labeled H2O were determined in the absence and presence of 1 equiv Cu^+ at various concentrations of Dy^3+ (FIG. 8). In the absence of Cu^+, the measured ^17O shift response for DyCG2 is 9 ppm/(mol/kg H2O), corresponding to q=0.3. When 1 equiv of Cu^+ is added, the observed shift response increases to 72 ppm/(mol/kg H2O), corresponding to q=2.0. […] DIS measurements of DyCG4 and DyCG5 without Cu^+ show slopes of 7 ppm/(mol/kg H2O) (q=0.2) and 12 ppm/(mol/kg H2O) (q=0.3), respectively. Cu^+ binding increases the DIS slopes for DyCG4 and DyCG5 to […] ([…]) and 41 ppm/(mol/kg H2O) (q=1.0), respectively.
# [3] = Metal ion selectivity of relaxivity response (competing metal ions alone or with added copper); assay type: physicochemical; conditions: relaxivity at 60 MHz, 20 mM HEPES, pH 7, 37° C.
# Procedure: FIG. 6. Relaxivity responses of CG2 to various metal ions. White bars represent the addition of an excess of the appropriate metal ion (10 mM for Na^+, 2 mM for K^+, Mg^2+, and Ca^2+, and 0.2 mM for Fe^2+, Fe^3+, Cu^2+) to a 0.2 mM solution of CG2. Response to Zn^2+ was measured both at 0.2 mM Zn^2+ (Zn^2+1×) and 2 mM Zn^2+ (Zn^2+10×). Black bars represent the subsequent addition of 0.2 mM Cu^+ to the CG2 solution. Relaxivity measurements were acquired at 37° C. in 20 mM HEPES buffer, pH 7, at a proton Larmor frequency of 60 MHz.
# The potential ability of this new family of CG sensors to sense bioavailable copper pools in either or both its predominant oxidation states represents a significant advance over the initial CG1 compound.
# [4] = Nuclear magnetic relaxation dispersion (NMRD) profiles, Solomon-Bloembergen-Morgan fit; assay type: physicochemical; conditions: for τs0 (electronic relaxation time at zero field) / r1p 20 MHz 25° C. / a (distance of closest approach of outer-sphere water protons) / Δ^2 (average quadratic transient zero field splitting) / τv (electronic correlation time) / q / τR (rotational correlation time): copper free; for r1p 20 MHz 25° C.: 0.5 mM, 20 mM HEPES pH 7; for a (distance of closest approach of outer-sphere water protons) / Δ^2 (average quadratic transient zero field splitting) / τv (electronic correlation time): best-fit value; for q: fixed in the fitting procedure; for τR (rotational correlation time): not experimentally determined, assumed equal to corresponding q ≠ 0 complex (CG5: average of the other complexes)
# Procedure: FIG. 9. ^1H Nuclear magnetic relaxation dispersion profiles of CG3 and CG3+Cu^+ acquired at 25° C. The solid lines represent the best fit profiles.
# As a secondary, independent set of experiments to further probe the mechanisms of copper ion sensing by the CG contrast agents, we also performed nuclear magnetic relaxation dispersion (NMRD) measurements of these sensors in the absence and in the presence of copper ions using a field cycling relaxometer (FIG. 9). The profiles obtained were analyzed following Solomon-Bloembergen-Morgan theory^36-38 for the inner-sphere relaxivity and the Freed model^115 for the outer-sphere relaxivity, fixing the diffusion coefficient (D) at […], the distance between Gd^3+ and the inner sphere water protons (r) at 3.1 Å, and the inner sphere exchange lifetime (τM) at 160 ns, the reported value for the parent complex Gd^3+-DO3A. Profiles were obtained for all compounds in the copper-free state. Profiles in the presence of Cu^n+ were obtained for CG2-4 (Cu^+) and CG6 (Cu^2+).
# In fact, the measured outer-sphere relaxivities were so low that, in order to obtain a reasonable fit, the distance of closest approach of outer-sphere water protons (a) was allowed to vary. The distances obtained for the CG complexes (4.2-4.8 Å) were markedly longer than what is observed for typical Gd^3+ contrast agents with greater water access (3.8-4 Å). These values correlate with the copper-free relaxivities of CG2-6; longer a values give lower relaxivities and shorter a values give higher relaxivities. For Cu^+-sensing agents CG2-4, the estimated change in q of 2 as determined by DIS measurements was also observed in the fitted NMRD data. In fact, any attempt to fit the observed NMRD profiles with q=1 led to very poor agreement between experimental and calculated values. The change in q of 1 for CG6 upon addition of Cu^2+ as determined by NMRD is consistent with the lower turn-on response observed with this complex compared to CG2-4. The reduced q modulation for CG6 relative to CG2-4 could indicate that the carboxylic acid moiety used for Cu^2+ binding also interacts with the Gd^3+ center in the Cu^2+-bound state. The fitted rotational correlation times (τR) for copper-bound CG complexes all fall within the range expected for Gd^3+ complexes with molecular weights of 700-800 D. τR values for copper-free CG2-6 were fixed to values close to their copper-bound analogues as fits of NMRD data for q=0 complexes are not sensitive to small changes in τR. The values of Δ^2 (average quadratic transient zero field splitting), τv (electronic correlation time), and τs0 (electronic relaxation time at zero field), which govern the electronic relaxation time, are relatively similar to each other. These NMRD values are closer to those of Gd^3+-DTPA than Gd^3+-DOTA, reflecting the asymmetry of CG2-6.^64
# [5] = Longitudinal relaxivity (r1) turn-on response to Cu+ from T1 measurements at 60 MHz; assay type: physicochemical; conditions: pH 7, 37° C.; for % increase in r1: 1 equiv Cu^+ vs no Cu, 20 mM HEPES; for r1 (1 equiv Cu): 20 mM HEPES buffer
# Procedure: as §1
# Upon addition of up to 1 equiv of copper ions, the relaxivity values of the CG contrast agents increase, establishing the ability of these probes to sense copper using the MR modality (Table 1, FIG. 3). CG2, CG3, CG4, and CG5 respond to Cu^+ with relaxivity increases ranging from 92% to 360%. […] These values represent the largest relaxivity enhancements observed to date for metal-activated MR contrast agents and a ca. 9-fold improvement in copper ion response compared to CG1 (41% increase). The observed differences in turn-on Cu^+ responses for benzyl-substituted CG4 (290% increase) versus methyl-substituted CG5 (92% increase) with the same pyridyl-thioether receptor show the marked effects that small peripheral substitutions can have on relaxivity properties.
# [6] = Longitudinal relaxivity (r1) turn-on response to Cu2+ from T1 measurements at 60 MHz; assay type: physicochemical; conditions: pH 7, 37° C.
# Procedure: as §1
# (§2) CG6 is a unique member of the CG family that is equally responsive to both Cu^+ and Cu^2+. Addition of either Cu^+ or Cu^2+ to CG6 triggers a maximum 73% relaxivity turn-on from r1=2.2 mM^−1s^−1 to r1=3.8 mM^−1s^−1. […] On the other hand, copper-bound CG6, which responds to both Cu^+ and Cu^2+, has the least positive Cu^2+/Cu^+ reduction potential at +0.13 V.
# [7] = Electrochemical Cu2+/Cu+ reduction potentials of copper-bound CG complexes; assay type: physicochemical; conditions: PBS buffer, pH 7.4
# Procedure: as §2
# [8] = Apparent Kd for Cu+ by UV-visible absorption with competing ligand thiourea; assay type: binding; conditions: 20 mM HEPES buffer, pH 7, 25° C., 1:1 stoichiometry assumed, read-out: Kd (apparent dissociation constant)
# Procedure: FIG. 5. Normalized absorbance response of 0.2 mM CG2-6 to buffered Cu^+ (CG2-5) or Cu^2+ (CG6) solutions for Kd value determination. Spectra were acquired in 20 mM HEPES, pH 7.
# [9] = 20 mM HEPES, pH 7, 1 equiv Cu^+
# [10] = 10% CH3CN in 20 mM HEPES pH 7, 1 equiv Cu^+
# [11] = 10% CH3CN in 20 mM HEPES pH 7, no Cu^+
Compound,redox specificity of relaxivity response (Cu^+ vs Cu^2+) [3],τs0 (electronic relaxation time at zero field) [4],r1p 20 MHz 25° C. [4],a (distance of closest approach of outer-sphere water protons) [4],Δ^2 (average quadratic transient zero field splitting) [4],τv (electronic correlation time) [4],q [4],τR (rotational correlation time) [4],r1 (1 equiv Cu) [5],r1 (no Cu) [1],further results
O=S(=O)([O-])[O-].[Cu+2] [CuSO4],,,,,,,,,,,relaxivity ([1]; 20 mM HEPES buffer at 60 MHz and 37° C.): < 0.1 mM⁻¹ s⁻¹
O=C([O-])CN1CCN(CC(=O)[O-])CCN(Cc2cccc(CN3CCSCCSCCSCC3)n2)CCN(CC(=O)[O-])CC1.[Dy+3] [DyCG3],,,,,,,,,,,"−Δ ppm/[Dy] (DIS slope) [2, 9]: 79 ppm/(mol/kg H2O); q (estimated number of inner-sphere water molecules) [2, 9]: 2.2; −Δ ppm/[Dy] (DIS slope) ([2]; 20 mM HEPES, pH 7, no Cu^+): 11 ppm/(mol/kg H2O)"
CCSCCN(Cc1ccccc1)Cc1cccc(CN2CCN(CC(=O)[O-])CCN(CC(=O)[O-])CCN(CC(=O)[O-])CC2)n1.[Dy+3] [DyCG4],,,,,,,,,,,"−Δ ppm/[Dy] (DIS slope) [2, 10]: 84 ppm/(mol/kg H2O); q (estimated number of inner-sphere water molecules) [2, 10]: 2.1; −Δ ppm/[Dy] (DIS slope) [2, 11]: 7 ppm/(mol/kg H2O)"
CCSCCN(CC(=O)[O-])Cc1cccc(CN2CCN(CC(=O)[O-])CCN(CC(=O)[O-])CCN(CC(=O)[O-])CC2)n1.[Gd+3] [CG6],responds to both Cu^+ and Cu^2+ with the same relaxivity turn-on,61 ps,2.2 mM⁻¹ s⁻¹,4.2 ± 0.13 Å,8.4 ± 2.0 10^19 s^−2,16 ± 2.7 ps,0^c,80^d ps,"3.8 mM^−1s^−1 and 3.8^b,c mM^−1s^−1",2.2 mM⁻¹ s⁻¹,"change in q ([4]; upon addition of Cu^2+, determined by NMRD): 1; % increase in r1 [5]: 73%; % increase in r1 ([6]; 1 equiv Cu^2+ vs no Cu, 20 mM HEPES): 73%; r1 (1 equiv Cu) ([6]; 1 equiv Cu^2+, 20 mM HEPES buffer): 3.8 mM^−1s^−1 and 3.8^b,c mM^−1s^−1"
CCSCCN(CCSCC)Cc1cccc(CN2CCN(CC(=O)[O-])CCN(CC(=O)[O-])CCN(CC(=O)[O-])CC2)n1.[Dy+3] [DyCG2],,,,,,,,,,,"−Δ ppm/[Dy] (DIS slope) [2, 9]: 72 ppm/(mol/kg H2O); q (estimated number of inner-sphere water molecules) [2, 9]: 2.0; −Δ ppm/[Dy] (DIS slope) ([2]; 20 mM HEPES, pH 7, no Cu^+): 9 ppm/(mol/kg H2O)"
CCSCCN(C)Cc1cccc(CN2CCN(CC(=O)[O-])CCN(CC(=O)[O-])CCN(CC(=O)[O-])CC2)n1.[Dy+3] [DyCG5],,,,,,,,,,,"−Δ ppm/[Dy] (DIS slope) [2, 10]: 41 ppm/(mol/kg H2O); q (estimated number of inner-sphere water molecules) [2, 10]: 1.0; −Δ ppm/[Dy] (DIS slope) [2, 11]: 12 ppm/(mol/kg H2O)"
O=C([O-])CN1CCN(CC(=O)[O-])CCN(Cc2cccc(CN3CCSCCSCCSCC3)n2)CCN(CC(=O)[O-])CC1.[Gd+3] [CG3],give turn-on relaxivity increases with Cu^+ but do not respond to Cu^2+,96 ps,1.6 mM⁻¹ s⁻¹,4.7 ± 0.09 Å,3.2 ± 0.7 10^19 s^−2,27 ± 4.4 ps,0^c,130^d ps,6.9 mM^−1s^−1 and 6.9^b mM^−1s^−1,1.5 mM⁻¹ s⁻¹,Cu^2+/+ E1/2 [7]: 0.58 V vs. SHE
CCSCCN(C)Cc1cccc(CN2CCN(CC(=O)[O-])CCN(CC(=O)[O-])CCN(CC(=O)[O-])CC2)n1.[Gd+3] [CG5],give turn-on relaxivity increases with Cu^+ but do not respond to Cu^2+,95 ps,1.6 mM⁻¹ s⁻¹,4.8 ± 0.12 Å,3.5 ± 0.8 10^19 s^−2,25 ± 4.2 ps,0^c,100^e ps,2.3^b mM^−1s^−1,1.2 mM⁻¹ s⁻¹,Kd [8]: 0.032 nM; % increase in r1 [5]: 92%; Cu^2+/+ E1/2 [7]: 0.34 V vs. SHE

# Source: patent publication US20110294992A1, “METAL RESPONSIVE MRI-AGENTS” (The Regents of the University of California, priority 2010, published 2011)
